Measured values as given in patent US9993494B2, “Compositions and methods for treating fibrotic disease” (eFFECTOR Therapeutics, Inc., priority 2014, dated 2018).

Test system: normal human lung fibroblasts
Test: Ribosomal profiling: translational efficiency in TGFβ-treated fibroblasts
Assay type: cell-based
Conditions: TGFβ-treated fibroblasts
Outline: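 Genome-wide RPF and total RNA libraries (ARTseq, RNA-Seq) were made from lysates of cycloheximide-treated, PBS-washed cells. After trimming and human-genome mapping, per-gene coding-region counts were compared between RPF and RNA for translational efficiency. Genes scoring low in either fraction were dropped.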

Cc1ccc(=O)n(-c2ccccc2)c1 [pirfenidone, 5-methyl-1-phenylpyridin-2-one]
+ (+ = 0.9 to 1.5): renormalizing the translational profile of RPL9 (ENSG00000163682) | renormalizing the translational profile of RPL27A (ENSG00000166441) | renormalizing the translational profile of ANKDD1A (ENSG00000166839) | renormalizing the translational profile of EEF2 (ENSG00000167658) | renormalizing the translational profile of RPL4 (ENSG00000174444) | renormalizing the translational profile of AMIGO3 (ENSG00000176020) | renormalizing the translational profile of RPLP2 (ENSG00000177600) | renormalizing the translational profile of DNAJC22 (ENSG00000178401) | renormalizing the translational profile of RPL35A (ENSG00000182899) | renormalizing the translational profile of PDE4B (ENSG00000184588) | renormalizing the translational profile of NACA (ENSG00000196531) | renormalizing the translational profile of RPL37A (ENSG00000197756) | renormalizing the translational profile of RPL12 (ENSG00000197958) | renormalizing the translational profile of GNB2L1 (ENSG00000204628) | renormalizing the translational profile of RPL17 (ENSG00000215472) | effect in renormalizing the translational profile of the gene (gene RPS5 (ENSG00000083845))
35 genes: number of genes whose translational efficiency was uniquely modulated by the compound (duplicate ribosomal profiles)
++ (++ = 1.5 to 2.0): renormalizing the translational profile of CA5B (ENSG00000169239)
+++ (+++ = >2.0): renormalizing the translational profile of CHCHD10 (ENSG00000250479)
− (− = <0.9): renormalizing the translational profile of RHOBTB3 (ENSG00000164292) | renormalizing the translational profile of HCN1 (ENSG00000164588) | renormalizing the translational profile of RP11-382A20.3.1 (ENSG00000166503) | renormalizing the translational profile of RPL13 (ENSG00000167526) | renormalizing the translational profile of MURC (ENSG00000170681) | renormalizing the translational profile of HTRA3 (ENSG00000170801) | renormalizing the translational profile of PDE7B (ENSG00000171408) | renormalizing the translational profile of LPAR3 (ENSG00000171517) | renormalizing the translational profile of CTPS (ENSG00000171793) | renormalizing the translational profile of QARS (ENSG00000172053) | renormalizing the translational profile of RPL38 (ENSG00000172809) | renormalizing the translational profile of MRPL45 (ENSG00000174100) | renormalizing the translational profile of RPL15 (ENSG00000174748) | renormalizing the translational profile of DES (ENSG00000175084) | renormalizing the translational profile of EIF3F (ENSG00000175390) | renormalizing the translational profile of CLCF1 (ENSG00000175505) | renormalizing the translational profile of C14orf49 (ENSG00000176438) | renormalizing the translational profile of IMPDH2 (ENSG00000178035) | renormalizing the translational profile of LENG9 (ENSG00000182909) | renormalizing the translational profile of C22orf32 (ENSG00000183172) | renormalizing the translational profile of NPW (ENSG00000183971) | renormalizing the translational profile of ROBO2 (ENSG00000185008) | renormalizing the translational profile of PTCH1 (ENSG00000185920) | renormalizing the translational profile of POLR1D (ENSG00000186184) | renormalizing the translational profile of DYNC2H1 (ENSG00000187240) | renormalizing the translational profile of RPL14 (ENSG00000188846) | renormalizing the translational profile of LRRK2 (ENSG00000188906) | renormalizing the translational profile of LAMB3 (ENSG00000196878) | renormalizing the translational profile of PCBP2 (ENSG00000197111) | renormalizing the translational profile of MAP3K5 (ENSG00000197442) | renormalizing the translational profile of LPAR1 (ENSG00000198121) | renormalizing the translational profile of RPL23A (ENSG00000198242) | renormalizing the translational profile of PLN (ENSG00000198523) | renormalizing the translational profile of RPL10A (ENSG00000198755) | renormalizing the translational profile of CES1 (ENSG00000198848) | renormalizing the translational profile of RPL39 (ENSG00000198918) | renormalizing the translational profile of CARD16 (ENSG00000204397) | renormalizing the translational profile of MICA (ENSG00000204520) | renormalizing the translational profile of RPL41 (ENSG00000229117) | renormalizing the translational profile of ARPC1A (ENSG00000241685) | renormalizing the translational profile of EEF1G (ENSG00000254772) | effect in renormalizing the translational profile of the gene (gene RPS2 (ENSG00000140988)) | effect in renormalizing the translational profile of the gene (gene RPS3 (ENSG00000149273)) | effect in renormalizing the translational profile of the gene (gene RPS3A (ENSG00000145425)) | effect in renormalizing the translational profile of the gene (gene RPS4X (ENSG00000198034)) | effect in renormalizing the translational profile of the gene (gene RPS4Y1 (ENSG00000129824)) | effect in renormalizing the translational profile of the gene (gene RPS6 (ENSG00000137154))
